Laboratory results published in ChEMBL document CHEMBL4477154, “Gersemiols A-C and Eunicellol A, Diterpenoids from the Arctic Soft Coral Gersemia fruticosa” (2016).
In brackets after ≈: the same amount, converted by molar mass. Activity calls are given as the source filed them. No cut-off for these calls is given here.

Key:
Staphylococcus aureus = assay: Antibacterial activity against methicillin-resistant Staphylococcus aureus after 20 hrs by spectrophotometry; type: functional
A549 = assay: Cytotoxicity against human A549 cells assessed as cell growth inhibition at 15 ug/ml after 72 hrs by MTT assay; type: functional, cell-based
MCF7 = assay: Cytotoxicity against human MCF7 cells assessed as cell growth inhibition at 15 ug/ml after 72 hrs by MTT assay; type: functional, cell-based
HT-29 = assay: Cytotoxicity against human HT-29 cells assessed as cell growth inhibition at 15 ug/ml after 72 hrs by MTT assay; type: functional, cell-based
MIA PaCa-2 = assay: Cytotoxicity against human MIAPaCa2 cells assessed as cell growth inhibition at 15 ug/ml after 72 hrs by MTT assay; type: functional, cell-based
HepG2 = assay: Cytotoxicity against human HepG2 cells assessed as cell growth inhibition at 15 ug/ml after 72 hrs by MTT assay; type: functional, cell-based

Row | Structure (SMILES) | MIC50 (Staphylococcus aureus) | growth inhibition (GI) (A549) | growth inhibition (GI) (MCF7) | growth inhibition (GI) (HT-29) | growth inhibition (GI) (MIA PaCa-2) | growth inhibition (GI) (HepG2)
1 | C=C1CCC[C@]2(C)CC[C@@]3(O)[C@@H]([C@@H](C(C)C)CC[C@@H]3C)[C@H]12 | 48 mg/L (≈ 165 µM) | inactive | inactive | inactive | inactive | inactive
2 | CC1=CCC[C@]2(C)CC[C@@H]3[C@@H]([C@@H](C(C)C)CC[C@]3(C)O)[C@H]12 |  | inactive | inactive | inactive | inactive | inactive
3 | CC1=CCC[C@]2(C)CC[C@@]3(O)[C@@H]([C@@H](C(C)C)CC[C@@H]3C)[C@H]12 |  | inactive | inactive | inactive | inactive | inactive
